From article PMC5396162, “Self‐Assembled Bifunctional Peptide as Effective Drug Delivery Vector with Powerful Antitumor Activity” (Advanced Science, 2017)

Assays:
A549 cells [1] = test: Cell apoptosis assay (Annexin V-FITC/PI flow cytometry); assay type: cell-based, human; details: A549, 24 h
Method: Given the effectiveness of transporting hydrophobic drug‐DOC into A549 cancer cells by the bifunctional peptide NPs, we carried out the cytotoxicity experiments to further evaluate the anticancer activity of DOC/peptide NPs on A549 by Flow cytometry analysis. Flow cytometry analysis was performed to monitor the percentage of cell apoptosis after the cells being stained by Annexin V‐Fluorescein isothiocyanate/propidium iodide (Annexin V‐FITC/PI) apoptosis detection kit, and A549 cells incubated in media only were used as control (Figure 6 A). The percentage of apoptosis of A549 cells (early and late apoptosis) incubated for 24 h with DOC/peptide containing DOC 5 × 10^−9 and 10 × 10^−9 M were 11.56 ± 0.91% and 20.66 ± 1.89%, respectively. For free DOC, they were 8.87 ± 0.79% and 15.73 ± 0.56%, respectively. Obviously, DOC‐loaded bifunctional peptide NPs induced significant cell apoptosis.
To investigate the apoptotic effect of the DOC/peptide NPs, flow cytometry was performed using an ESP Elite flow cytometer (BeckmaneCoulter, Miami, FL, USA) with FITC‐conjugated Annexin V/propidium iodide (PI, BD PharMingen) staining as per the manufacturer's instructions. A549 cells cultured in 6‐well plates were treated with DOC/peptide NPs, free DOC, and blank peptide. […] Both early apoptotic (Annexin V‐positive, PI‐negative) and late apoptotic (Annexin V‐positive and PI‐positive) cells were measured.

[2] = In vitro release of DOC in PBS pH 7.4; assay type: physicochemical; details: PBS pH 7.4, within 24 h
Excerpt: The mass spectrum of the HRK‐19 peptide was shown in Figure S1 of the Supporting Information. And it can be seen the mass of HRK‐19 peptide was 1959.80 g mol^−1, which was consistent with the theoretical mass (1959.20 g mol^−1). The HRK‐19 peptide had ≥95% purity, as confirmed by analytical reversed‐phase (RP)‐high performance liquid chromatography (HPLC) (Figure S2, Supporting Information). As shown in Figure S3 of the Supporting Information, the HRK‐19 peptide contains no apparent secondary structure such as helix and Beta turn. […] To prepare a tumor‐targeting peptide, in this study, Asn‐Gly‐Arg‐Arg‐Gly‐Asp (NGRRGD) and three amino acids (HAV) were conjugated with apoptosis‐inducing peptide sequence AVPIAQK, forming bifunctional peptide (HRK‐19 peptide, HAVRNGRRGDGGAVPIAQK). As shown schematically in Figure 2 A, self‐assembly of the DOC/peptide NPs was prepared by the film dispersion method. […] It can be seen that the DL, and particle size increased with increase of drug/copolymer ratio in feed, whereas, the EE decreased accordingly. In consideration of DL and stability, the sample of S2 was chose for further applications and was characterized in detail. The DL and EE of DOC were 4.52 ± 0.18% and 90.50 ± 3.68%. […]

A549 cells [3] = test: Microtubule formation (α-tubulin fluorescence microscopy); assay type: cell-based, human; details: A549, 4 h
Excerpt: Agents targeting microtubules are often used in cancer therapy. The taxanes act to stabilize microtubules and dampen microtubule dynamics to prevent the normal formation of mitotic spindles.34 Both paclitaxel and DOC can bind to β‐tubulin in assembled tubulin, thereby reducing depolymerization and leading to cell death.35 Therefore, we examined the effects of DOC on microtubule formation and cell apoptosis on A549 cells. […] However, at 10 × 10^−9 M, DOC begins to arrest A549 cells by interfering with the assembling/disassembling microtubule spindle.
Figure 5 The effects of DOC on the microtubule formation on the A549 cell lines. A549 cells were seeded on coverslip and treated with docetaxel of indicated concentrations for 4 h. The microtubule was determined by fluorescence microscopy. The red indicates the α‐tubulin and the blue is the DAPI stain for DNA. Scale bar: 20 µm.
For the expression and localization of α‐tubulin, cells were incubated with the antibodies against α‐tubulin (Abcam, USA) followed by incubation with TRITC‐conjugated secondary antibodies. The images were obtained using a confocal microscope (DM6000 CS, Leica, Germany).

CC(=O)O[C@@]12CO[C@@H]1C[C@H](O)[C@@]1(C)C(=O)[C@H](O)C3=C(C)[C@@H](OC(=O)[C@H](O)[C@@H](NC(=O)OC(C)(C)C)c4ccccc4)C[C@@](O)([C@@H](OC(=O)c4ccccc4)[C@H]21)C3(C)C [DOC, Docetaxel]
Percentage of apoptosis (early and late apoptosis) (A549 cells [1]; DOC 5 × 10^−9 M): 8.87 ± 0.79%
Percentage of apoptosis (early and late apoptosis) (A549 cells [1]; DOC 10 × 10^−9 M): 15.73 ± 0.56%
Peak release of DOC, % of the total drug [2]: 85.37 ± 1.83%
Concentration at which DOC begins to arrest cells by interfering with the microtubule spindle (A549 cells [3]): 10 nM
